According to article PMC11497058, “Ginsenoside Rg3 Restores Mitochondrial Cardiolipin Homeostasis via GRB2 to Prevent Parkinson's Disease” (Advanced Science, 2024):
Structures can show the parent of a compound that is named as a salt.

biological target: T1, Growth Factor Receptor-Bound Protein 2 (GRB2) (Homo sapiens, UniProt P62993); experiment: bio-layer interferometry (ForteBio Octet); supported by thermal shift assay (CETSA) and LiP-SMap; format: binding
T1 construct: Recombinant His-tagged GRB2 (pET-28a, E. coli)

SMILES | Kd
CC(C)=CCC[C@](C)(O)[C@H]1CC[C@]2(C)[C@@H]1[C@H](O)C[C@@H]1[C@@]3(C)CC[C@H](O[C@@H]4O[C@H](CO)[C@@H](O)[C@H](O)[C@H]4O[C@@H]4O[C@H](CO)[C@@H](O)[C@H](O)[C@H]4O)C(C)(C)[C@@H]3CC[C@]12C [Rg3, Ginsenoside Rg3] | 869 nM

biological target: GRB2 (Homo sapiens, UniProt P62993); experiment: biochemical; design: Surface plasmon resonance screen of compounds binding to GRB2, KD
Excerpt: To further validate the universal impact of TRKA‐GRB2 axis‐targeted molecular in enhancing CL expression and ameliorating PD, we employed Surface Plasmon Resonance (SPR) technology^[ [58] ^] to screen compounds that bind to GRB2 (Figure 8a). Subsequently, we identified 11 compounds with a KD value at the […] (Table S9, Supporting Information). The viability of SH‐SY5Y cells exposed to mpp+ or 6‐OHDA increased upon treatment with TDF and [compound left out] (Figure S13a and b, Supporting Information). TDF acts as a prodrug of tenofovir, a nucleotide reverse transcriptase inhibitor.^[ [59] ^] On the other hand, [compound left out] is specially formulated for ophthalmological steroid‐based treatments.^[ [60] ^] Considering its oral administration capability, we selected TDF for further research (Figure S13c and d, Supporting Information). TDF facilitated the clearance of overexpressed A53T‐αSyn in SH‐SY5Y cells (Figure S13e and f, Supporting Information) and promoted the interaction between GRB2 and TRKA without affecting the interaction between GRB2 and EGFR in these cells (Figure 8b–d). Treatment with TDF enhanced CRLS1 expression and restored the decreased mitochondrial CL levels caused by A53T‐αSyn in SH‐SY5Y cells. However, knockdown of GRB2 or TRKA in SH‐SY5Y cells attenuated TDF‐induced effect (Figure 8e–g). Moreover, TDF increased TRKA phosphorylation, ERK phosphorylation, and CRLS1 expression, while GW441756 […] these changes (Figure S13g–j, Supporting Information). When SCH772984 was employed, it blocked the ability of TDF to increase ERK phosphorylation and CRLS1 expression (Figure S13k–m, Supporting Information). The impairment of exercise ability was alleviated following TDF (80 mg kg^−1) treatment, resulting in an increase in the distance travelled by A53T‐αSyn‐treated mice (Figure 8h,i). […] Western blotting was performed to evaluate the expression of TRKA and EGFR in cell lysates immunoprecipitated with an anti‐GRB2 antibody (b). Quantification of TRKA levels (c) and EGFR levels (d). e,f) Representative western blot images of CRLS1, GRB2, TRKA in SH‐SY5Y cells treated with TDF (10 µM) or DMSO (0.1%) for 24 h after transfection with Scramble, GRB2 or TRKA siRNAs for 24 h. Quantification of CRLS1 levels (f). g) SH‐SY5Y cells were treated with TDF (10 µM) or DMSO (0.1%) for 24 h after transfection with Scramble, GRB2 or TRKA siRNAs for 24 h. Quantification of mitochondrial CL in SH‐SY5Y cells. Three independent experiments per condition were performed in (b–g). h) Movement track in the open field test. i) Total distance travelled in the open field. j) Time required to descend the pole. k) Time required to fall off the rotarod. (n = 10 mice per group in (h–k). l) Immunohistochemical staining of TH^+ neurons (scale bar = 100 µm). m) Quantification of TH^+ neurons. (n = 3 mice per group in l, m). Data are normalised to those of the DMSO group (c,d) and the Scramble_DMSO group (f). Mean ± standard error of the mean is presented. *p < 0.05, **p < 0.01, ***p < 0.001, ****p < 0.0001, ns, not significant. Student's two‐tailed unpaired t‐test (c,d), two‐way ANOVA with Sidak's multiple comparisons test (f,g,i,j,k and m). Source data are provided in the Source Data file.

Kd | SMILES
192 nM | COC(c1ccccc1)(c1ccccc1)[C@H](Oc1nc(C)cc(C)n1)C(=O)O [Ambrisentan]
15.2 nM | Nc1nc(=O)n([C@@H]2CS[C@H](CO)O2)cc1F [Emtricitabine]
241 nM | NC(=O)N1c2ccccc2CC(=O)c2ccccc21 [Oxcarbazepine]
1470 nM | C/C(=C\CO)CCC[C@H](C)CCC[C@H](C)CCCC(C)C [Phytol]
99.6 nM | CC(C)N(CCNC(=O)CN1CCCC1=O)C(C)C [Pramiracetam]
160 nM | CC(N)C12CC3CC(CC(C3)C1)C2 (centres unmarked) [Rimantadine]
262 nM | O=C1c2ccccc2-c2n[nH]c3cccc1c23 [SP600125]
74.3 nM | CC(C)OC(=O)OCOP(=O)(CO[C@H](C)Cn1cnc2c(N)ncnc21)OCOC(=O)OC(C)C [TDF, Tenofovir Disoproxil Fumarate]
3730 nM | O=C(O)c1ccc2nc(-c3cc(Cl)cc(Cl)c3)oc2c1 [tafamidis]

SMILES | Kd
CCCC(=O)O[C@]1(C(=O)CCl)[C@@H](C)C[C@H]2[C@@H]3CCC4=CC(=O)C=C[C@]4(C)[C@@]3(F)C(=O)C[C@@]21C [Clobetasone butyrate] | 100 nM
